Values of other authors, collected in publication PMC6851657 (Clinical Pharmacology and Therapeutics, 2019).

Details: ref fluconazole SimCYP compound file V16; cited from earlier work

## OC(Cn1cncn1)(Cn1cncn1)c1ccc(F)cc1F [Fluconazole, fluconazole]
  CL following i.v. administration: 1.01 L/h
  In vivo renal clearance in a 20–30 year healthy man: 0.7 L/h
  Volume of distribution at steady state: 0.748 L/kg
